The values below come from patent US20210361638A1, “FXR AGONISTS FOR THE TREATMENT OF LIVER DISEASES” (NOVARTIS AG, priority 2017, published 2021).

In one data set the test system is NASH subjects. Particulars: FLINT trial; placebo-treated patients 6%; cited from earlier work.
Another data set relates to dogs. Nature of the data set: Oral gavage toxicity studies in dogs for up to 39 weeks.
The subject of the next data set is STAM mice. Put plainly: STAM mouse model of NASH. Particulars: for NAFLD activity score (NAS): doses 0.1 and 0.3 mg/kg, qd orally weeks 9-12; for Sirius Red-positive areas (pericellular fibrosis): tropifexor 0.03, 0.1, 0.3 mg/kg; for liver triglycerides: tropifexor qd orally weeks 9-12.
Data set [1] deals with ANIT-induced cholestatic rats. Put plainly: ANIT-induced cholestasis rat model. The class given is in vivo, Sprague-Dawley (SD) rats. The procedure:
Experimental protocols were approved by the local Animal Care and Use Committee and were in compliance with Animal Welfare Act regulations and US regulation (Guide for the Care and Use of Laboratory Animals). […] . The tropifexor-treated rats were sacrificed at 1 and 7 h (n=3/time point) and OCA-treated rats were sacrificed at 1, 3, and 7 h (n=3/time point) after the final dose on day 14 for analysis of target gene expression and serum biomarkers. […] .

The nature of data set [2]: Exposure and exploratory exposure-response analysis in NASH patients. The class given is in vivo, human.
The test system of the next data set is NASH mice. Put plainly: Diet-induced (AMLN diet) insulin-resistant NASH mouse model. The class given is in vivo, C57B16 mice. The source says: A separate model for diet-induced NASH was developed as described by Trevaskis et al. Male C57B16 mice aged […] were maintained on a high fat (40% kcal; Primex), high fructose (22% by weight), and high cholesterol (2% by weight) diet (Research Diets Inc., New Brunswick, N.J. cat. no. D09100301) for 26 weeks to induce NASH. Control animals received low-fat diet (10% kcal) with no fructose or cholesterol (Research Diets, cat. no. D09100304). […] . Expression of collagen, type I, alpha 1 (Col1a1) and tissue inhibitor of metalloproteinase 1 (Timp1) genes was analyzed by real time quantitative PCR.

In another data set the test system is FGF19. Nature of the data set: Pharmacodynamic marker FGF19 with increasing doses. The class given is in vivo. As to conditions: increasing doses up to 3000 μg.
A further data set relates to FGR5. Nature of the data set: FGR5 effects (specificity).

“Also recorded” adds a separate entry of the source.

Method for STAM mice: Further experiments in the STAM model were performed: 2-day old male C57Bl/6J mice were injected with streptozotocin and placed on a high-fat diet (HFD) from weeks 4-12 (HFD-32; CLEA-Japan, Tokyo, Japan). […] Hematoxylin & eosin (H&E)-stained sections were evaluated for nonalcoholic fatty liver disease (NAFLD) activity score (NAS) according to previously defined criteria.
Liver sections were fixed in 4% paraformaldehyde for 48 h and shipped for histopathological analysis.

As for `CC[C@H]1[C@@H](O)[C@@H]2[C@H](CC[C@]3(C)[C@@H]([C@H](C)CCC(=O)O)CC[C@@H]23)[C@@]2(C)CC[C@@H](O)C[C@@H]12` [OCA, 6α-ethyl-chenodeoxycholic acid], the patients with pruritus in the data set on NASH subjects is 23%.
On to `O=C(O)c1cc(F)c2nc(N3C4CC[C@H]3C[C@H](OCc3c(-c5ccccc5OC(F)(F)F)noc3C3CC3)C4)sc2c1` [tropifexor, 2-[(1R,3r,5S)-3-({5-cyclopropyl-3-[2-(trifluoromethoxy)phenyl]-1,2-oxazol-4-yl}methoxy)-8-azabicyclo[3.2.1]octan-8-yl]-4-fluoro-1,3-benzothiazole-6-carboxylic acid], for which the “Mean AUC0-24 h at which hepatocellular hypertrophy was adverse” value in the data set with dogs (females) came out at 507 ng·h/mL. The “Mean AUC0-24 h at which hepatocellular hypertrophy was adverse” value with dogs (males) is 898 ng·h/mL. For the same molecule, in the data set with STAM mice (FIG. 2 legend), the Plasma cholesterol levels result is listed as “significantly reduced”. In addition, in the data set with STAM mice, the “NAFLD activity score (NAS)” value is “significantly reduced”, the “Sirius Red-positive areas (pericellular fibrosis)” value is listed as “significantly reduced” and the liver triglycerides result is “significantly reduced”. Besides, in the data set on STAM mice (listed as LJN452), the “NAFLD activity score (NAS)” value was “significant decrease” and the liver triglycerides result is “reduction”. Moreover, in the data set with STAM mice (mouse, in vivo), the “fibrosis area in comparison with baseline group” value was “decreased” and the “resolution of the NASH phenotype, comparison with OCA” value was “more effectively than OCA”. Moreover, in the data set on STAM mice (listed as Tropifexor), the “Sirius Red-positive areas (pericellular fibrosis)” value was “statistically significant dose-dependent reduction”. Moreover, in data set [1] (FIG. 1D, vs vehicle-treated ANIT livers), the “quantitation of collagen deposition (fibrosis)” value is “significantly decreased”. Further, in data set [1] (FIG. 1 legend), the “serum biochemistry parameters, liver damage, and fibrosis” value is “improves”. Besides, the “collagen deposition and liver fibrosis” value in data set [1] (chronic ANIT treatment, FIG. 1C) is reported as “highly reduced”. Moreover, the “AST, ALT, total BAs, total bilirubin, and GGT levels” value in data set [1] (doses as low as 0.3 mg/kg, oral qd 5 days, vs vehicle-treated ANIT rats) is reported as “marked reduction”. For the same molecule, the “reduction of cholestatic disease markers, comparison with OCA” value in data set [1] (rat, in vivo) is recorded as “more effective than OCA”. For the same molecule, the “liver histology: necrosis of the bile duct epithelium, bile duct hyperplasia, inflammatory cell infiltrates” value in data set [1] (vs vehicle-treated cholestatic rats, 0.03, 0.3, 1 mg/kg) is reported as “dose-dependent improvement”. In addition, the “predicted exposure in NASH patients” value in data set [2] (200 μg daily) is reported as “approximately 80 ng·hr/ml”. In addition, the “exposure level in NASH patients” value in data set [2] (at 200 μg) was 80 ng·h/mL. The hepatic crown-like structures result with NASH mice (mid- and high dose tropifexor) is listed as “completely eliminated”. Moreover, the “ALT and AST levels” value with NASH mice (mid-dose level) is recorded as “normalized”. In addition, in the data set on NASH mice (mouse, in vivo), the “collagen deposition in liver (fibrosis), Trichrome staining” value is “strongly abrogates; also recorded: reverses” and the “steatosis by quantification of liver triglycerides” value is given as “Dose-dependent reduction”. Further, the “mRNA levels of fibrogenic markers Col1a1 and TIMP1” value in the data set with NASH mice (real time quantitative PCR) is listed as “dramatically reduced”. Also, the “ALT and AST” value in the data set on NASH mice (relative to vehicle-treated controls, 4 weeks qd orally) was “dose-dependent reduction”. For the same molecule, in the data set with NASH mice (therapeutic mode), the “liver inflammation, steatosis, and fibrosis” value was “resolved”. In the data set on FGF19, the “pharmacodynamic marker FGF19” value is given as “continues to rise”. The FGR5 effects result with FGR5 is given as “no FGR5 effects”.
